Laboratory results reported in patent US20240270725A1, “MAGL INHIBITORS” (Hoffmann-La Roche Inc., priority 2021, published 2024).

Columns and labels:
[1] = test system: MAGL; experiment: In vivo PET scans in MAGL KO and WT mice; settings: mouse brain, at 1 min p.i., intravenous
Experimental: The animal was anesthetized using isoflurane and placed in the PET/CT scanner (Super Argus, Sedecal, Madrid, Spain). The radiotracer was injected intravenously, and data was acquired at 1 min post-injection. The dynamic PET scan lasted 60 min for [^11C]-I, while it's prolonged to 90 min for [^18F]-II and [^18F]-III. […] The regions of interest (ROI) were defined on an MRI T2 (W.Schiffer) template provided by PMOD v4.002 (PMOD Technologies, Zurich, Switzerland) to generate the corresponding time acitivity curves (TACs). The radioactivity accumulations in the whole brain and different regions were expressed as standardized uptake values (SUVs), which is the decay-corrected regional radioactivity normalized to the injected radioactivity and body weight.

[2] = molecular target: T1, MAGL (Mus musculus, UniProt O35678); experiment: 2-AG assay, MAGL inhibitory activity (mouse); format: biochemical
T1 sequence (O35678 1-303): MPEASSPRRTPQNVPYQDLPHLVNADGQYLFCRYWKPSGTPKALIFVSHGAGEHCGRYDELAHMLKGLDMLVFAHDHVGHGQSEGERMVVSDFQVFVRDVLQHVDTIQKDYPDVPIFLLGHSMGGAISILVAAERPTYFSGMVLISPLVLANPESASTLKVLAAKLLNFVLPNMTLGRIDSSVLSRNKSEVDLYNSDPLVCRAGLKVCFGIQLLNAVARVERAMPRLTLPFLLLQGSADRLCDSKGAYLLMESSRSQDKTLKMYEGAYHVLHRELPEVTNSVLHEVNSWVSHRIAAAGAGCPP
Experimental: (§1) Compounds were profiled for MAGL inhibitory activity by determining the enzymatic activity by following the hydrolysis of the natural substrate, 2-arachidonoylglycerol, resulting in arachidonic acid, which can be followed by mass spectrometry. This assay is hereinafter abbreviated “2-AG assay”.
(§2) A C18 SPE cartridge (G9205A) was used in an acetonitrile/water liquid setup. […] The activity of the compounds was calculated based on the ratio of intensities [arachidonic acid/d8-arachidonic acid].

[3] = molecular target: T2, MAGL (Homo sapiens, UniProt Q99685); experiment: 2-AG assay, MAGL inhibitory activity (human); format: biochemical
T2 sequence (Q99685 1-303): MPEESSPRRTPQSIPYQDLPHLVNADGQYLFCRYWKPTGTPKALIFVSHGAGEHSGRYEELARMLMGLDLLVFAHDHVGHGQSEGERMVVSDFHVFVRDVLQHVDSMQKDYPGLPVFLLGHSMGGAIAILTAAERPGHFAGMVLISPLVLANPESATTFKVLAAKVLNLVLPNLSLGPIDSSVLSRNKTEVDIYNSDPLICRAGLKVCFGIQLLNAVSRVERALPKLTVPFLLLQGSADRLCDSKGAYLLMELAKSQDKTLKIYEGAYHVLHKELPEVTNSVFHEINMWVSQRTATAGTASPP
Experimental: as §1, §2

[4] = test system: MAGL
Experimental: Frozen brain tissues of Wistar rats or mouse were cut in the thickness of 10 μm on a cryostat (Cryo-Star HM 560 MV; Microm, Thermo Scientific, Wilmington, DE), and stored at −20° C. before use. Before the experiments, the slices were thawed on ice for 10 min and subsequently immersed into aqueous 50 mM Tris buffer (pH 7.4, 30 mM HEPES, 1.2 mM MgCl2, 110 mM NaCl, 5 mM KCl, 2.5 mM CaCl2) containing 3% fatty acid free bovine serum albumin (BSA) at 0° C. for 10 min for precondition. Upon drying, incubation was carried out in a humidified chamber with the radiotracer at room temperature for 30 min. […] The slices were decanted after incubation, and washing procedure was conducted. The slices were left to dry before attaching to phosphor imager plates (Fuji, Dielsdorf, Switzerland), and exposure was lasted for 60 min. The films were later scanned by BAS5000 reader (Fuji), and data analysis was performed using AIDA 4.50.010 software (Raytest Isotopenmessgerate GmbH, Straubenhardt, Germany).

[5] = molecular target: T3, MAGL (Rattus norvegicus, UniProt Q8R431); experiment: In vitro autoradiography blockade on rat brain section; format: binding; settings: 10 μM blocker
T3 construct: from tissue; host or cells: Wistar rat brain sections
T3 sequence (Q8R431 1-303): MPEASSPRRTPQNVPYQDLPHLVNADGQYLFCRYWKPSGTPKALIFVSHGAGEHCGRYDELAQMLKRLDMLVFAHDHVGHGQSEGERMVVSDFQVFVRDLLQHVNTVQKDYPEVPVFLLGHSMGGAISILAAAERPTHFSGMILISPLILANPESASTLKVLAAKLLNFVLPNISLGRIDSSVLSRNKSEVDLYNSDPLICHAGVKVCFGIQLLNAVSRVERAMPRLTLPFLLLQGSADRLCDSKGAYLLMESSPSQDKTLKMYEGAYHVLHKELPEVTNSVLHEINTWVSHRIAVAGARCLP

[6] = molecular target: T1, MAGL; experiment: Drug occupancy study by PET with [^18F]-II; format: in vivo
Experimental: To investigate the utility of [^18F]-II, a drug occupancy study was conducted after validating the in vitro/vivo specificity. The potent and selective covalent MAGL inhibitor PF-06795071, originally developed for anti-inflammatory treatments, was applied for this study (McAllister LA, Butler C R, Mente S, et al. Discovery of Trifluoromethyl Glycol Carbamates as Potent and Selective Covalent Monoacylglycerol Lipase (MAGL) Inhibitors for Treatment of Neuroinflammation. J Med Chem. 2018;61:3008-3026). PF-06795071 was prepared as a transparent solution in a vehicle of DMSO/Cremophor/saline (v/v/v=5/5/90). The animal was treated with escalating doses of PF-06795071 (0.002, 0.01, 0.05, 0.2 and 2 mg/kg) 1 hour prior to the administration of [^18F]-II (4.15-11.13 MBq, 6.84-13.19 nmol/kg). The in vivo PET scans and data reconstruction were carried out as described in Example 9. The SUVs from the whole brain TACs was averaged from 0-90 min to obtain SUV0-90 min in receptor occupancy study as previously detailed by Krämer et al. (Krämer SD, Betzel T, Mu L, et al. Evaluation of ^11C-Me-NB1 as a Potential PET Radioligand for Measuring GluN2B-Containing NMDA Receptors, Drug Occupancy, and Receptor Cross Talk. J Nucl Med. 2018;59:698-703). The non-linear curve was fitted with GraphPad Prism Software (version 8.3.4, GraphPad Software Inc) for D50 value.

[7] = test system: MAGL; settings: reported in Hattori et al., J Med Chem 2019; cited from earlier work

Q: With `O=C(c1ccco1)N1CCN([C@@H]2CC(=O)N(c3ccc(-c4cccc([18F])c4)cc3)C2)CC1` [[^18F]-III] as the compound, how does the “SUVmax (brain uptake)” value [1] read?
A: ~1.63

Q: Which IC50 [2] does the source give for `O=C(c1ccco1)N1CCN([C@@H]2CC(=O)N(c3ccc(-c4cccc(F)c4)cc3)C2)CC1` [III, (R)-1-(3′-Fluoro-[1,1′-biphenyl]-4-yl)-4-(4-(furan-2-carbonyl)piperazin-1-yl)pyrrolidin-2-one] here?
A: 11.3 nM

Q: What about the IC50 [3] of the same compound?
A: 11.5 nM

Q: Which results are given for `[11CH3]Oc1cccc(-c2ccc(N3C[C@H](N4CCN(C(=O)c5ccco5)CC4)CC3=O)cc2)c1` [[^11C]-I, (R)-4-(4-(furan-2-carbonyl)piperazin-1-yl)-1-(3′-(methoxy-^11C)-[1,1′-biphenyl]-4-yl)pyrrolidin-2-one]?
A: specificity and selectivity in vitro ([4]; autoradiography, blockade and MAGL KO brain section): high specificity and selectivity; distribution of radioactive signal accumulation on brain slices ([4]; ~1 nM radiotracer, mouse or rat brain slice): heterogeneous distribution of radioactive signal accumulation, which matched to the MAGL expression pattern in rodents; SUVmax (brain uptake) [1]: ~1.32

Q: For `O=C(OC(C(F)(F)F)C(F)(F)F)N1CCC(CNS(=O)(=O)c2ccc(Cl)cc2)CC1` [SAR127303], which “blockade of specific binding of [^11C]-I” value [5] is on record?
A: substantial reduction and homogenous distribution of the radioactivity

Q: With `O=C(O[C@H](CO)C(F)(F)F)N1C[C@@H]2C(c3ccn(-c4ccc(F)cc4)n3)[C@@H]2C1` (stereo partly shown) [PF-06795071] as the compound, how does the “effect on [^18F]-II accumulation in the mouse brain” value ([6]; 0.002 to 2 mg/kg) read?
A: dose-dependent reduction

Q: And the “required dose to occupy 50% MAGL in the mouse brain (D50)” value ([6]; given 1 hour prior to [^18F]-II, SUV0-90 min whole brain)?
A: 0.034 mg/kg

Q: With `O=C(c1ccco1)N1CCN([C@@H]2CC(=O)N(c3ccc(-c4ccc([18F])cc4)cc3)C2)CC1` [[^18F]-II] as the compound, how does the “SUVmax (brain uptake)” value [1] read?
A: ~1.56

Q: Which “SUVmax (brain uptake), literature” value [7] does the source give for `Cc1ccnc([18F])c1-c1cccc(N2C[C@H](N3CCN(C(=O)c4nccs4)CC3)CC2=O)c1` [[^18F]T-401, (4R)-1-{3-[2-(^18F)Fluoro-4-methylpyridin-3-yl]phenyl}-4-[4-(1,3-thiazol-2-ylcarbonyl)piperazin-1-yl]pyrrolidin-2-one] here?
A: ~0.7

Q: For `COc1cccc(-c2ccc(N3C[C@H](N4CCN(C(=O)c5ccco5)CC4)CC3=O)cc2)c1` [I, (R)-4-(4-(Furan-2-carbonyl)piperazin-1-yl)-1-(3′-methoxy-[1,1′-biphenyl]-4-yl)pyrrolidin-2-one], which IC50 [2] is on record?
A: 4.3 nM

Q: And the IC50 [3]?
A: 6.5 nM
